Laboratory results as given in US7541346B2, “Pancratistatin cyclic phosphate prodrugs and phenpanstatin cyclic phosphate prodrugs” (Arizona Board of Regents, a body corporate of the State of …, priority 2003, dated 2009).
Values after ≈ are worked out from the molar mass of the structure shown. Like-named read-outs stand apart in the source and are kept apart here.

How the values were obtained:
MCF-7 = test: Human cancer cell line inhibitory activity, Breast MCF-7; assay type: cell-based; conditions: for GI50: Homo sapiens, MCF7, read-out: GI50 Breast MCF-7
KM20L2 = test: Human cancer cell line inhibitory activity, Colon KM20L2; assay type: cell-based; conditions: for GI50: Homo sapiens, KM-20L2, read-out: GI50 Colon KM20L2
SF268 = test: Human cancer cell line inhibitory activity, CNS SF268; assay type: cell-based; conditions: for GI50: Homo sapiens, SF-268, read-out: GI50 CNS SF268
NCI-H460 = test: Human cancer cell line inhibitory activity, Lung-NSC NCI-H460; assay type: cell-based; conditions: for GI50: Homo sapiens, NCI-H460, read-out: GI50 Lung-NSC NCI-H460
BXPC-3 = test: Human cancer cell line inhibitory activity, Pancreas-a BXPC-3; assay type: cell-based; conditions: for GI50: Homo sapiens, BXPC-3, read-out: GI50 Pancreas-a BXPC-3
DU-145 = test: Human cancer cell line inhibitory activity, Prostate DU-145; assay type: cell-based; conditions: for GI50: Homo sapiens, DU-145, read-out: GI50 Prostate DU-145
[1] = system: Encephalitozoon intestinalis; conditions: in vitro; cited from earlier work
[2] = freeze dried solid
Method: Sodium pancratistatin 3,4-cyclic phosphate (5a, 0.0165 g, 0.04 mmol) was dissolved in water (1 ml) and eluted through a column containing Amberlite IR 120 (H+) resin.

SMILES	GI50 Breast MCF-7 (MCF-7) [µg/mL]	GI50 Colon KM20L2 (KM20L2) [µg/mL]	GI50 CNS SF268 (SF268) [µg/mL]	GI50 Lung-NSC NCI-H460 (NCI-H460) [µg/mL]	GI50 Pancreas-a BXPC-3 (BXPC-3) [µg/mL]	GI50 Prostate DU-145 (DU-145) [µg/mL]	further results
O=C1N[C@H]2[C@@H]3OP(=O)([O-])O[C@@H]3[C@@H](O)[C@H](O)[C@@H]2c2cc3c(c(O)c21)OCO3.[Na+] [Compound 5a, Sodium Pancratistatin 3,4-cyclic Phosphate]	2.9	3.7	2.9	3.8	3.3	2.3	–
C1CNCCN1.O=C1N[C@H]2[C@H](OP(=O)(O)O)[C@H](O)[C@@H](O)[C@H](O)[C@@H]2c2cc3c(c(O)c21)OCO3 [Compound 4h, Piperazinium Pancratistatin 4-O-Phosphate]	0.38	0.24	0.27	0.35	0.31	0.21	–
C=C[C@H]1CN2CC[C@H]1C[C@H]2[C@H](O)c1ccnc2ccc(OC)cc12.O=C1N[C@H]2[C@H](OP(=O)(O)O)[C@H](O)[C@@H](O)[C@H](O)[C@@H]2c2cc3c(c(O)c21)OCO3 [Compound 4k, Quinium Pancratistatin 4-O-Phosphate]	0.35	0.22	0.28	0.31	0.23	0.15	–
O=C1N[C@H]2[C@H](OP(=O)([O-])[O-])[C@H](O)[C@@H](O)[C@H](O)[C@@H]2c2cc3c(c(O)c21)OCO3.[Na+].[Na+] [Compound 4a, Sodium Pancratistatin 4-O-phosphate]	0.18	0.24	0.12	0.38	0.18	0.94	–
C=C[C@H]1CN2CC[C@H]1C[C@@H]2[C@@H](O)c1ccnc2ccc(OC)cc12.O=C1N[C@H]2[C@H](OP(=O)(O)O)[C@H](O)[C@@H](O)[C@H](O)[C@@H]2c2cc3c(c(O)c21)OCO3 [Compound 4l, Quinidium Pancratistatin 4-O-Phosphate]	0.38	0.23	0.27	0.36	0.34	0.20	–
O=C1N[C@H]2[C@H](OP(=O)([O-])O)[C@H](O)[C@@H](O)[C@H](O)[C@@H]2c2cc3c(c(O)c21)OCO3.[Li+] [Compound 4c, Lithium Pancratistatin 4-O-phosphate]	0.39	0.25	0.28	0.35	0.30	0.20	–
O=C(O[C@H]1[C@H](O)[C@@H](O)[C@@H](O)[C@@H]2NC(=O)c3c(cc4c(c3O)OCO4)[C@H]21)c1ccccc1 [Compound 3a, phenpanstatin]	–	–	–	–	–	–	GI50 (MCF-7): 0.00031 µg/mL (≈ 0.000722 µM); GI50 (KM20L2): 0.00037 µg/mL (≈ 0.000862 µM); GI50 (SF268): 0.00055 µg/mL (≈ 0.00128 µM); GI50 (NCI-H460): 0.0001 µg/mL (≈ 0.000233 µM); GI50 (BXPC-3): 0.0019 µg/mL (≈ 0.00442 µM); GI50 (DU-145): 0.00021 µg/mL (≈ 0.000489 µM)
O=C1N[C@H]2[C@H](OP(=O)([O-])[O-])[C@H](O)[C@@H](O)[C@H](O)[C@@H]2c2cc3c(c(O)c21)OCO3.[Zn+2] [Compound 4g, Zinc Pancratistatin 4-O-Phosphate]	0.47	0.30	0.38	0.42	0.27	0.17	–
O=C1N[C@H]2[C@H](O)[C@H](O)[C@@H](O)[C@H](O)[C@@H]2c2cc3c(c(OP(=O)([O-])[O-])c21)OCO3.[Na+].[Na+] [Compound 1b, sodium pancratistatin 7-O-phosphate, reference compound]	0.20	0.17	0.079	0.19	0.20	0.026	–
O=C1N[C@H]2[C@H](O)[C@H](O)[C@@H](O)[C@H](O)[C@@H]2c2cc3c(c(O)c21)OCO3 [Compound 1a, (+)-pancratistatin, reference compound]	–	–	–	–	–	–	activity against microspirochesis [1]: remarkable activity; GI50 (MCF-7): 0.023 µg/mL (≈ 0.0707 µM); GI50 (KM20L2): 0.025 µg/mL (≈ 0.0769 µM); GI50 (SF268): 0.014 µg/mL (≈ 0.043 µM); GI50 (NCI-H460): 0.032 µg/mL (≈ 0.0984 µM); GI50 (BXPC-3): 0.02 µg/mL (≈ 0.0615 µM); GI50 (DU-145): 0.015 µg/mL (≈ 0.0461 µM)
O=C1N[C@H]2[C@H](OP(=O)(O)O)[C@H](O)[C@@H](O)[C@H](O)[C@@H]2c2cc3c(c(O)c21)OCO3 [Compound 4b, Pancratistatin 4-O-phosphoric Acid]	0.43 (≈ 1.06 µM)	0.33 (≈ 0.814 µM)	0.35 (≈ 0.864 µM)	0.42 (≈ 1.04 µM)	0.36 (≈ 0.888 µM)	0.20 (≈ 0.494 µM)	stability of the material [2]: unstable and decomposed over several days
O=C1N[C@@H]2C(=C[C@H](O)[C@@H](O)[C@H]2O)c2cc3c(c(O)c21)OCO3 [Compound 2a, narciclasine, reference compound]	0.0032 (≈ 0.0104 µM)	0.0032 (≈ 0.0104 µM)	0.0031 (≈ 0.0101 µM)	0.0084 (≈ 0.0273 µM)	0.0035 (≈ 0.0114 µM)	0.0032 (≈ 0.0104 µM)	–
O=C1N[C@H]2[C@H](OP(=O)([O-])[O-])[C@H](O)[C@@H](O)[C@H](O)[C@@H]2c2cc3c(c(O)c21)OCO3.[Mg+2] [Compound 4e, Magnesium Pancratistatin 4-O-Phosphate]	0.44	0.36	0.36	0.42	0.40	0.22	–
O=C1N[C@H]2[C@H](OP(=O)(O)O)[C@H](O)[C@@H](O)[C@H](O)[C@@H]2c2cc3c(c(O)c21)OCO3.c1c[nH]cn1 [Compound 4j, Imidazolium Pancratistatin 4-O-Phosphate]	0.33	0.13	0.21	0.25	0.25	0.13	–
O=C1N[C@H]2[C@H](OP(=O)([O-])[O-])[C@H](O)[C@@H](O)[C@H](O)[C@@H]2c2cc3c(c(O)c21)OCO3.[Ca+2] [Compound 4f, Calcium Pancratistatin 4-O-Phosphate]	0.36	0.23	0.26	0.27	0.25	0.12	–
O=C1N[C@H]2[C@H](OP(=O)([O-])[O-])[C@H](O)[C@@H](O)[C@H](O)[C@@H]2c2cc3c(c(O)c21)OCO3.[K+].[K+] [Compound 4d, Potassium Pancratistatin 4-O-phosphate]	0.46	0.30	0.39	0.40	0.45	0.22	–
O=C(O[C@H]1[C@H](O)[C@H]2OP(=O)([O-])O[C@H]2[C@@H]2NC(=O)c3c(cc4c(c3O)OCO4)[C@H]21)c1ccccc1.[Na+] [Compound 3b, Sodium Phenpanstatin 3,4,O-cyclic Phosphate]	–	–	–	–	–	–	GI50 Breast MCF-7 (MCF-7; human cancer cell line MCF-7): 0.041 µg/mL; GI50 Colon KM20L2 (KM20L2; human cancer cell line KM20L2): 0.13 µg/mL; GI50 CNS SF268 (SF268; human cancer cell line SF268): 0.17 µg/mL; GI50 Lung-NSC NCI-H460 (NCI-H460; human cancer cell line NCI-H460): 0.029 µg/mL; GI50 Pancreas-a BXPC-3 (BXPC-3; human cancer cell line BXPC-3): 0.25 µg/mL; GI50 Prostate DU-145 (DU-145; human cancer cell line DU-145): 0.13 µg/mL
C1COCCN1.O=C1N[C@H]2[C@H](OP(=O)(O)O)[C@H](O)[C@@H](O)[C@H](O)[C@@H]2c2cc3c(c(O)c21)OCO3 [Compound 4i, Morpholinium Pancratistatin 4-O-Phosphate]	0.40	0.37	0.38	0.46	0.29	0.18	–
